Assay results: patent US10183944B2 (Asana Biosciences, LLC, priority 2011, dated 2019)

Columns and labels:
[1] = biological target: Syk (356-635 amino acids) catalytic domain (Homo sapiens (Human), UniProt P43405); assay: Inhibition of enzymatic Syk kinase activity (radiometric); assay type: biochemical; conditions: read-out: IC50 Syk
In short: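 Radiometric filter-binding format: 32P transfer from γ-32P-ATP onto pG4T, scintillation-counted after acid washes of P81 paper. Syk kinase domain (356-635), 0.035–7.5 ng per reaction, was exposed to compound for 30 minutes at room temperature before a 10-minute, 30° C. reaction with ATP (100 μM stock). Inhibition derived from counts with versus without compound.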

JAK2 = JAK2 (Homo sapiens (Human), UniProt O60674); assay: Inhibition of enzymatic JAK2 kinase activity (TR-FRET); assay type: biochemical; conditions: read-out: IC50 JAK
In short: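 TR-FRET read-out (Eu antibody donor, Ulight poly Glu-Tyr acceptor, 665/615 nm ratio) after a 60 min RT kinase reaction with ATP, begun following 30 min compound–enzyme preincubation. Stopped by EDTA; inhibition expressed as 100 minus % activity of positive control.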

Sequence of JAK2 (O60674 808-1132): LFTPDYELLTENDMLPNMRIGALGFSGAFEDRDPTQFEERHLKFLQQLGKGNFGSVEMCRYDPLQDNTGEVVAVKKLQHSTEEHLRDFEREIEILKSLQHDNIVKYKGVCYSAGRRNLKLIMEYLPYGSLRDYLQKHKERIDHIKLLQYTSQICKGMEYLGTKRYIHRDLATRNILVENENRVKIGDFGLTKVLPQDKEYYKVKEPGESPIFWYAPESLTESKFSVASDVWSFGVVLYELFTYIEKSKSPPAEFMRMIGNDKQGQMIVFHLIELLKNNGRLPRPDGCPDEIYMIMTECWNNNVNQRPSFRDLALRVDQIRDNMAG

Row | SMILES | IC50 [1] | IC50 (JAK2)
1 | N#CCC1CCN(c2nc(Nc3ccc(N4CCC(CCF)CC4)cc3)c3c(=O)[nH]ncc3n2)CC1 [Example 299, 2-(1-(4-((4-(4-(2-fluoroethyl)piperidin-1-yl)phenyl)amino)-5-oxo-5,6-dihydropyrimido[4,5-d]pyridazin-2-yl)piperidin-4-yl)acetonitrile] | < 50 nM | < 50 nM
2 | N#CCC1CCN(c2nc(Nc3ccc(CCCO)cc3)c3c(=O)[nH]ncc3n2)CC1 [Example 309, 2-(1-(4-((4-(3-hydroxypropyl)phenyl)amino)-5-oxo-5,6-dihydropyrimido[4,5-d]pyridazin-2-yl)piperidin-4-yl) acetonitrile] | < 50 nM | < 50 nM
3 | N#CCC1CCN(c2nc(Nc3ccc(CCO)cc3)c3c(=O)[nH]ncc3n2)CC1 [Example 323, 2-(1-(4-((4-(2-hydroxyethyl)phenyl)amino)-5-oxo-5,6-dihydropyrimido[4,5-d]pyridazin-2-yl)piperidin-4-yl) acetonitrile] | < 50 nM | < 50 nM
4 | N#CCC1CCN(c2nc(Nc3ccc4[nH]nnc4c3)c3c(=O)[nH]ncc3n2)CC1 [Example 335, 2-(1-(4-((1H-benzo[d][1,2,3]triazol-5-yl)amino)-5-oxo-5,6-dihydropyrimido[4,5-d]pyridazin-2-yl)piperidin-4-yl) acetonitrile] | < 50 nM | < 50 nM
5 | N#CCC1CCN(c2nc(Nc3ccc4[nH]c(=O)[nH]c4c3)c3c(=O)[nH]ncc3n2)CC1 [Example 336, 2-(1-(5-oxo-4-((2-oxo-2,3-dihydro-1H-benzo[d]imidazol-5-yl)amino)-5,6-dihydropyrimido[4,5-d]pyridazin-2-yl)piperidin-4-yl)acetonitrile] | < 50 nM | < 50 nM
6 | N#CCC1CCN(c2nc(Nc3ccc(CCCF)cc3)c3c(=O)[nH]ncc3n2)CC1 [Example 337, 2-(1-(4-((4-(3-fluoropropyl)phenyl)amino)-5-oxo-5,6-dihydropyrimido[4,5-d]pyridazin-2-yl)piperidin-4-yl) acetonitrile] | < 50 nM | < 50 nM

The remaining lines, values ahead:

Row | IC50 [1] | IC50 (JAK2) | SMILES
7 | < 50 nM | < 50 nM | N#CCC1CCN(c2nc(Nc3ccc(OCCCO)cc3)c3c(=O)[nH]ncc3n2)CC1 [Example 295, 2-(1-(4-((4-(3-hydroxypropoxy)phenyl)amino)-5-oxo-5,6-dihydropyrimido[4,5-d]pyridazin-2-yl)piperidin-4-yl) acetonitrile]
8 | < 50 nM | < 10 nM | O=c1[nH]ncc2nc(N3CCCCCC3)nc(Nc3ccc(CCCO)cc3)c12 [Example 308, 2-(azepan-1-yl)-4-((4-(3-hydroxypropyl)phenyl)amino)pyrimido[4,5-d]pyridazin-5(6H)-one]
9 | < 50 nM | < 10 nM | CC(C)(CO)Oc1ccc(Nc2nc(N3CCCCCC3)nc3cn[nH]c(=O)c23)cc1 [Example 314, 2-(azepan-1-yl)-4-((4-((1-hydroxy-2-methylpropan-2-yl)oxy)phenyl)amino) pyrimido[4,5-d]pyridazin-5(6H)-one]
10 | < 50 nM | < 10 nM | O=c1[nH]ncc2nc(N3CCCCCC3)nc(Nc3ccc(CCO)cc3)c12 [Example 322, 2-(azepan-1-yl)-4-((4-(2-hydroxyethyl)phenyl)amino)pyrimido[4,5-d]pyridazin-5(6H)-one]
11 | < 50 nM | < 50 nM | COCCOc1ccc(Nc2nc(N3CCCCCC3)nc3cn[nH]c(=O)c23)cc1 [Example 324, 2-(azepan-1-yl)-4-((4-(2-methoxyethoxy)phenyl)amino)pyrimido[4,5-d]pyridazin-5(6H)-one]
12 | < 50 nM | > 100 nM | O=c1[nH]ncc2nc(N3CCCCCC3)nc(Nc3ccc(CO)cc3)c12 [Example 331, 2-(azepan-1-yl)-4-((4-(hydroxymethyl)phenyl)amino)pyrimido[4,5-d]pyridazin-5(6H)-one]
13 | < 50 nM | < 10 nM | CS(=O)(=O)c1ccc(Nc2nc(N3CCCCCC3)nc3cn[nH]c(=O)c23)cc1 [Example 334, 2-(azepan-1-yl)-4-((4-(methylsulfonyl)phenyl)amino)pyrimido[4,5-d]pyridazin-5(6H)-one]
